Results: publication PMC4287437, “Novel Inhibitors Induce Large Conformational Changes of GAB1 Pleckstrin Homology Domain and Kill Breast Cancer Cells” (PLoS Computational Biology, 2015)
Several values for one entry are separate records, joined by “and”; a condition that tells them apart may be missing. Equal values may be shown once.

How the values were obtained:
[1] = target: T1, human GAB1 PH domain (Homo sapiens, UniProt Q13480); assay: SPR direct binding to GAB1 PH domain; details: for Kd: read-out: KD GAB1; for Kd / KD GAB1: SPR, immobilized PH domain GST-fusion, NB = No Binding; for Exp. ΔGbind: GAB1, derived from experimental KD (or Ki)
T1 sequence (Q13480 5-116 limits assumed): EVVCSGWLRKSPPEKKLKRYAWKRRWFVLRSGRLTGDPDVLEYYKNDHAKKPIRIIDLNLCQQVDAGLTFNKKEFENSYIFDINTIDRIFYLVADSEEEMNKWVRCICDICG
Method: (§3) Binding assays were performed using a Biacore 2000 instrument with the Biacore Control Software v3.2 and BIAevaluation v4.1 analysis software (Biacore, Piscataway, NJ) as previously described [51]. Briefly, the PH domain GST-fusion proteins were immobilized on a CM5 Sensorchip (Biacore BR-1000-12) using Biacore's Amine Coupling Kit (Biacore BR-1000-50) to a level of 10,000 Response units (RUs). Small molecule analytes at concentrations ranging from one tenth to ten times the predicted K D were injected at a high flow rate (30 µL/min). Dimethylsulfoxide (DMSO) concentrations in all samples and running buffer were 1% (v/v) or less. For the competitive binding assays and K i determination, PtdIns(3,4,5)P3-biotin labeled liposomes (Echelon Biosciences, Salt Lake City, UT) and SA chips were used with increasing concentrations of the compound tested. We did triplicate SPR assays for each concentration.

[2] = tested on: phospho-Tyr627 GAB1; assay: Inhibition of GAB1 Y627 phosphorylation in T47D cells; format: cell-based, human; details: 20 µM, 4 hr, HGF stimulated
Method: For all biological assays, hit compounds were added at 20 µM concentration directly into the culture media of the cells for 4 hr following a 16 hr incubation of T47D cells without FBS. Cells were stimulated with HGF for 20 min at 50 ng/ml. Following this treatment, cells were lysed as previously published and equal amounts of total cell lysate were loaded on a pSer^312-IRS-1/Total IRS-1 Meso Scale Discovery plate as described by the manufacturer. The plate was read using a Sector Imager 2400A instrument (Meso Scale Discovery protein profiling system, Gaithersburg, MD). For the measurement of GAB1 phosphorylation, T47D cells were treated as for the phosphorylation of IRS1 evaluation. […] Each experiment was performed at least three times.

[3] = tested on: MDA-MB-231; assay: Cellular proliferation (MTT) assay, MDA-MB-231; format: cell-based, human; details: for IC50: 4 days growth, MTT, IA = Inactive; for toxicity to MDA-MB-231 at 100 µM: data not shown
Method: (§1) T47D and MDA-MB-231 cells were maintained in bulk culture in Dulbecco's modified Eagle medium (DMEM) supplemented with 10% heat-inactivated fetal bovine serum (FBS), 4.5 g/L glucose, 100 U/mL penicillin and […] streptomycin in a 5% CO2 atmosphere. MCF-10A cells were maintained in MEGM with other conditions same as the cancer cell lines. […] Cells were confirmed to be mycoplasma free by testing them with an ELISA kit (Roche-Boehringer Mannheim, Indianapolis, IN). Our hit compounds were freshly prepared in DMSO at a stock concentration of 10 mM. For the evaluation of cellular proliferation, a standard 96-well micro-cytotoxicity assay was performed as described in reference. Briefly, the assay was set up by plating cells at 5,000–10,000 cells per well (depending on cell doubling time) for a growth period of 4 days. The identified hits were added directly to the media, dissolved in DMSO at various concentrations ranging from 1 to 200 µM. The endpoint was spectrophotometric determination of the reduction of 3-(4,5-dimethylthiazol-2-yl)-2,5-diphenyltetrazolium bromide. All assays were performed in triplicates.

[4] = tested on: T47D; assay: Cellular proliferation (MTT) assay, T47D; format: cell-based, human; details: for IC50: 4 days growth, MTT, IA = Inactive; for toxicity to T47D at 100 µM: data not shown
Method: as §1

[5] = target: T1, human GAB1 PH domain; assay: SPR competitive binding (PtdIns(3,4,5)P3-biotin liposomes), Ki, GAB1 PH domain; details: read-out: Ki GAB1, cells marked * (Ki measurement)
Method: as §3

[6] = target: T2, human IRS1 PH domain (Homo sapiens, UniProt P35568); assay: SPR direct binding to IRS1 PH domain; details: for Kd: read-out: KD IRS1; for Exp. ΔGbind: IRS1, derived from experimental KD
T2 sequence (P35568 12-115 limits assumed): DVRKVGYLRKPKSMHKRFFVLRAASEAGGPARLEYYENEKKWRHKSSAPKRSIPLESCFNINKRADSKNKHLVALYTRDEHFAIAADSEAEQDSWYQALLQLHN
Method: as §3

[7] = tested on: MCF-10A; assay: Cellular proliferation assay, MCF-10A non-tumorigenic cells; format: cell-based, human; details: data not shown
Method: (§2) Two human breast cancer cell lines and one normal breast cell line were used for this study: T47D ductal breast epithelial tumor cell line, MDA-MB-231 epithelial tumor cell line and MCF-10A non-tumorigenic epithelial cell line (American Type Culture Collection, Rockville, MD). T47D and MDA-MB-231 cells were maintained in bulk culture in Dulbecco's modified Eagle medium (DMEM) supplemented with 10% heat-inactivated fetal bovine serum (FBS), 4.5 g/L glucose, 100 U/mL penicillin and […] streptomycin in a 5% CO2 atmosphere. MCF-10A cells were maintained in MEGM with other conditions same as the cancer cell lines. Cells were passaged using 0.25% trypsin and 0.02% EDTA. Cells were confirmed to be mycoplasma free by testing them with an ELISA kit (Roche-Boehringer Mannheim, Indianapolis, IN). Our hit compounds were freshly prepared in DMSO at a stock concentration of 10 mM. For the evaluation of cellular proliferation, a standard 96-well micro-cytotoxicity assay was performed as described in reference. Briefly, the assay was set up by plating cells at 5,000–10,000 cells per well (depending on cell doubling time) for a growth period of 4 days. The identified hits were added directly to the media, dissolved in DMSO at various concentrations ranging from 1 to 200 µM. […]

[8] = tested on: MDA-MB-468 cell line; assay: Cellular proliferation assay, MDA-MB-468; format: cell-based; details: cell marked ** in MDA-MB-231 column: MDA-MB-468 cell line used
Method: as §2

[9] = target: GAB2 PH domain (Homo sapiens, UniProt Q9UQC2); assay: Follow-up binding to GAB2 PH domain; details: follow-up experiments
Chain of GAB2 PH domain (Q9UQC2 6-117 limits assumed): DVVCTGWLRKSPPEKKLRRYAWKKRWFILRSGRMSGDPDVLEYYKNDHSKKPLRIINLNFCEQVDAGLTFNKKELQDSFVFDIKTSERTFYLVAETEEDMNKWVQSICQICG

[10] = SPR, immobilized PH domain GST-fusion, NB = No Binding

SMILES: CCCCCCCCCCCCCCCCCCOC[C@H](COP(=O)(O)OC1C(O)[C@@H](O)C(O)C[C@H]1O)OC (stereo partly shown) [DPIEL, reference compound]
- Kd [1]: 2.8 µM
- % pGAB1 inhibition [2]: 72%

SMILES: O=S(=O)(NCc1csc2ccc(Cl)cc12)c1cc(S(=O)(=O)c2ccccc2)cs1 [GAB-001]
- IC50 [3]: 40.3 ± 1.3 µM
- IC50 [4]: 23.7 ± 2.7 µM
- Exp. ΔGbind [1]: -6.91 kcal/mol
- Ki [5]: 9.4 µM and 9.38 µM
- % pGAB1 inhibition [2]: 55%
- KD IRS1 [6, 10]: not to IRS1 PH domain
- Kd [6, 10]: > 50 µM

SMILES: Cn1cnc(S(=O)(=O)Nc2ccccc2SCCS(=O)(=O)c2ccc(Cl)cc2)c1 [GAB-002]
- IC50 [3]: 143 ± 11.6 µM
- IC50 [4]: 138 ± 6.9 µM
- Kd [1]: 2.1 ± 0.1 µM
- % pGAB1 inhibition [2]: 32%
- Kd [6, 10]: 16.4 ± 4.3 µM

SMILES: O=c1[nH]nc(SCc2csc(-c3ccccc3)n2)n1Cc1ccco1 [GAB-004]
- IC50 [3]: 66.6 ± 4.6 µM
- IC50 [4]: 19.4 ± 2.9 µM
- Exp. ΔGbind [1]: -7.78 kcal/mol
- Kd [1]: 2.2 ± 1.1 µM
- % pGAB1 inhibition [2]: 81%
- Kd [6, 10]: > 50 µM

SMILES: CS(=O)(=NS(=O)(=O)c1ccc(-c2ccccn2)s1)c1ccc(Cl)cc1 (stereo not shown) [GAB-005]
- IC50 [3]: > 200 µM
- IC50 [4]: > 200 µM
- Kd [1]: > 50 µM
- % pGAB1 inhibition [2]: 6%
- Kd [6, 10]: > 50 µM

SMILES: Cc1cc2ncc(-c3cnc(SCCS(=O)(=O)c4ccc(Cl)cc4)nc3)c(C)n2n1 [GAB-006]
- IC50 [4]: 101 ± 1.8 µM
- Kd [1]: > 50 µM
- % pGAB1 inhibition [2]: 16%
- Kd [6, 10]: > 50 µM

SMILES: CS(=O)(=O)CCSc1ncccc1C(=O)Sc1ccc(Cl)cc1Cl [GAB-007]
- IC50 [3]: 4.6 ± 0.7 µM
- IC50 [4]: 20.1 ± 4.3 µM
- Exp. ΔGbind [1]: -6.01 kcal/mol
- Kd [1]: 42.3 ± 8.9 µM
- % pGAB1 inhibition [2]: 53%
- Exp. ΔGbind [6]: -7.93 kcal/mol
- Kd [6, 10]: 1.6 ± 0.2 µM

SMILES: O=S(=O)(NCc1csc(-c2cccs2)n1)c1ccc(N2CCOCC2)nc1 [GAB-008]
- IC50 [3]: > 200 µM
- IC50 [4]: 43.2 ± 3.2 µM
- Kd [1]: > 50 µM
- % pGAB1 inhibition [2]: 8%
- Kd [6, 10]: 16.2 ± 1.7 µM

SMILES: Cc1noc(C)c1NC(=O)NCc1csc(-c2cccs2)n1 [GAB-009]
- IC50 [3]: 163 ± 6 µM
- IC50 [4]: 97.6 ± 6.1 µM
- Kd [1]: > 50 µM
- % pGAB1 inhibition [2]: 38%
- Kd [6, 10]: > 50 µM

SMILES: Cc1onc(-c2ccccc2)c1-c1nc(CSc2nc3ccccc3[nH]2)no1 [GAB-010]
- IC50 [3]: 66 ± 4.4 µM
- IC50 [4]: 23.8 ± 4.2 µM
- Kd [1]: > 50 µM
- % pGAB1 inhibition [2]: 92%
- Exp. ΔGbind [6]: -9.51 kcal/mol
- Kd [6, 10]: 0.12 ± 0.02 µM

SMILES: Cn1c(Cc2ccsc2)nnc1SCC(=O)Nc1cc(Cl)cc(Cl)c1 [GAB-011]
- IC50 [3]: > 200 µM
- IC50 [4]: > 200 µM
- Kd [1]: > 50 µM
- % pGAB1 inhibition [2]: 24%
- Kd [6, 10]: > 50 µM

SMILES: O=C(O)c1ccccc1C(=O)Nc1ccccc1SCCS(=O)(=O)c1ccc(Cl)cc1 [GAB-012]
- killing of MDA-MB-231 cells at 50 µM [3]: did not effectively kill
- toxicity to MDA-MB-231 at 100 µM [3]: not for T47D and MDA-MB-231
- IC50 [3]: > 200 µM
- killing of T47D cells at 50 µM [4]: did not effectively kill
- toxicity to T47D at 100 µM [4]: not for T47D and MDA-MB-231
- IC50 [4]: 119 ± 3.6 µM
- Kd [1]: > 50 µM
- % pGAB1 inhibition [2]: 43%
- toxicity to MCF-10A at 100 µM [7]: toxic
- Kd [6, 10]: > 50 µM

SMILES: COc1cc(NS(=O)(=O)c2ccc(NS(=O)(=O)c3c(C)noc3C)cc2)nc(OC)n1 [GAB-013]
- killing of MDA-MB-231 cells at 50 µM [3]: did not effectively kill
- toxicity to MDA-MB-231 at 100 µM [3]: not for T47D and MDA-MB-231
- IC50 [3]: > 200 µM
- killing of T47D cells at 50 µM [4]: did not effectively kill
- toxicity to T47D at 100 µM [4]: not for T47D and MDA-MB-231
- IC50 [4]: > 200 µM
- Kd [1]: > 50 µM
- % pGAB1 inhibition [2]: 27%
- toxicity to MCF-10A at 100 µM [7]: toxic
- Kd [6, 10]: > 50 µM

SMILES: Cc1nnc(NS(=O)(=O)c2ccc(NS(=O)(=O)c3ccc4ccccc4c3)cc2)s1 [GAB-014]
- IC50 [8]: 69.9 ± 0.1 µM
- IC50 [4]: 178 ± 3.9 µM
- Kd [1]: > 50 µM
- % pGAB1 inhibition [2]: 42%
- Kd [6, 10]: > 50 µM

SMILES: CCCCCCCCCCCCc1ccc(S(=O)(=O)Nc2nnc(CC(=O)O)s2)cc1 [GAB-015]
- IC50 [4]: 125 ± 5.4 µM
- Ki [5]: 13.1 ± 1.5 µM
- % pGAB1 inhibition [2]: 77%
- Kd [6, 10]: 0.05 µM

SMILES: CCCCCCCCCCCCc1ccc(S(=O)(=O)Nc2nnc(CC(=O)OCC)s2)cc1 [GAB-016]
- targeting of GAB2 PH domain [9]: targets GAB2 PH domain as well
- Exp. ΔGbind [1]: -8.31 kcal/mol
- KD GAB1 [1]: nanomolar binding affinity
- Kd [1]: 0.9 ± 0.1 µM
- Exp. ΔGbind [6]: -9.38 kcal/mol
- Kd [6, 10]: 0.15 µM

SMILES: CCCCCCCCCCCCc1ccc(S(=O)(=O)Nc2nnc(C(=O)OCC)s2)cc1 [GAB-017]
- Exp. ΔGbind [1]: -8.47 kcal/mol
- KD GAB1 [1]: nanomolar binding affinity
- Kd [1]: 0.68 ± 0.03 µM
- Kd [6, 10]: 0.05 µM

SMILES: CCCCCCCCCCCCc1ccc(S(=O)(=O)Nc2nnc(S(N)(=O)=O)s2)cc1 [GAB-018]
- killing of MDA-MB-231 cells at 50 µM [3]: did not effectively kill
- killing of T47D cells at 50 µM [4]: did not effectively kill
- IC50 [4]: 185 ± 2.5 µM
- Ki [5]: 36.6 ± 5 µM
- % pGAB1 inhibition [2]: 71%
- Kd [6, 10]: > 50 µM

SMILES: CCc1ccc(C(=O)OC)cc1CSc1nnc(-c2ccc(C(F)(F)F)cc2)n1Cc1ccoc1 [GAB-019]
- IC50 [4]: 39.4 ± 6.2 µM
- % pGAB1 inhibition [2]: 91%

SMILES: CCCCCCCCCCCCc1ccc(S(=O)(=O)Nc2nncs2)cc1 [GAB-020]
- Kd [1]: 1.33 µM
- % pGAB1 inhibition [2]: 87%
